# Measurements as given in PubChem BioAssay (NCI).
#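 1) Cells in 96-well plates. 2) Compound, 48 h, 5 concentrations. 3) Linear interpolation between surrounding doses. 4) Unreached endpoint = highest concentration. TGI denotes the concentration required for complete inhibition of growth.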
# Key:
# Test in all cases: NCI anticancer screen, dose series, 48 h
# [1] = tested on: HCT-116 colon
# [2] = tested on: XF 498 CNS
# [3] = tested on: NCI-H23 lung
# [4] = tested on: OVCAR-4 ovarian
# [5] = tested on: OVCAR-8 ovarian
# [6] = tested on: DU-145 prostate
# [7] = tested on: MDA-MB-231 breast
# [8] = tested on: HL-60(TB) leukemia
# [9] = tested on: SF-295 CNS
# [10] = tested on: T-47D breast
# [11] = tested on: SNB-75 CNS
# [12] = tested on: COLO 205 colon
# [13] = tested on: MOLT-4 leukemia
# [14] = tested on: A498 renal
# [15] = tested on: SF-268 CNS
# [16] = tested on: U251 CNS
# [17] = tested on: SK-MEL-28 melanoma
# [18] = tested on: DLD-1 colon
# [19] = tested on: HOP-18 NSCLC
# [20] = tested on: HCC-2998 colon
# [21] = tested on: LOX IMVI melanoma
# [22] = tested on: SK-MEL-5 melanoma
# [23] = tested on: NCI-H460 lung
# [24] = tested on: HOP-62 NSCLC
# [25] = tested on: ACHN renal
# [26] = tested on: SK-MEL-2 melanoma
# [27] = tested on: HS 578T breast
# [28] = tested on: RXF 393 renal
# [29] = tested on: PC-3 prostate
# [30] = tested on: SR leukemia
# [31] = tested on: UACC-62 melanoma
# [32] = tested on: SN12C renal
# [33] = tested on: OVCAR-5 ovarian
# [34] = tested on: SK-OV-3 ovarian
# [35] = tested on: LXFL 529 NSCLC
# [36] = tested on: CAKI-1 renal
# [37] = tested on: MDA-MB-435
# [38] = tested on: SNB-78 CNS
# [39] = tested on: UO-31 renal
# [40] = tested on: DMS 114 small cell lung
# [41] = tested on: HOP-92 NSCLC
# [42] = tested on: HCT-15 colon
# [43] = tested on: CCRF-CEM leukemia
# [44] = tested on: DMS 273 small cell lung
# [45] = tested on: KM12 colon
# [46] = tested on: M19-MEL melanoma
# [47] = tested on: SF-539 CNS
# [48] = tested on: MDA-N
# [49] = tested on: HT29 colon
# [50] = tested on: EKVX NSCLC
# [51] = tested on: IGROV1 ovarian
# [52] = tested on: SW-620 colon
# [53] = tested on: 786-0 renal
# [54] = tested on: RPMI-8226 leukemia
# [55] = tested on: TK-10 renal
# [56] = tested on: NCI-H226 lung
# [57] = tested on: BT-549 breast
# [58] = tested on: UACC-257 melanoma
# [59] = tested on: K-562 leukemia
# [60] = tested on: NCI-H522 lung
# [61] = tested on: KM20L2 colon
# [62] = tested on: OVCAR-3 ovarian
# [63] = tested on: SNB-19 CNS
# [64] = tested on: MALME-3M melanoma
# [65] = tested on: MCF7 breast
# [66] = tested on: M14 melanoma
# [67] = tested on: A549 NSCLC
compound,measurement,setting,value
Cc1cccc(C)c1NC(=O)/C(Cl)=C(/Cl)C(=O)O,TGI,[1],36.4 µM
same,TGI,[2],28.6 µM
same,TGI,[3],38.6 µM
same,TGI,[4],33.5 µM
same,TGI,[5],40.9 µM
same,TGI,[6],64.8 µM
same,TGI,[7],41.7 µM
same,TGI,[8],> 100 µM
same,TGI,[9],> 56.1 µM
same,TGI,[10],66.2 µM
same,TGI,[11],43.4 µM
same,TGI,[12],11.4 µM
same,TGI,[13],27.5 µM
same,TGI,[14],60.6 µM
same,TGI,[15],32.6 µM
same,TGI,[16],47.5 µM
same,TGI,[17],35.1 µM
same,TGI,[18],17.8 µM
same,TGI,[19],38.2 µM
same,TGI,[20],32.2 µM
same,TGI,[21],34.3 µM
same,TGI,[22],34.5 µM
same,TGI,[23],> 69.9 µM
same,TGI,[24],> 81.7 µM
same,TGI,[25],29.4 µM
same,TGI,[26],31.5 µM
same,TGI,[27],83.2 µM
same,TGI,[28],33.9 µM
same,TGI,[29],50.4 µM
same,TGI,[30],> 57.1 µM
same,TGI,[31],20.6 µM
same,TGI,[32],33.7 µM
same,TGI,[33],40.6 µM
same,TGI,[34],45.5 µM
same,TGI,[35],15.2 µM
same,TGI,[36],15.1 µM
same,TGI,[37],51 µM
same,TGI,[38],> 74.6 µM
same,TGI,[39],21.7 µM
same,TGI,[40],43.2 µM
same,TGI,[41],30.3 µM
same,TGI,[42],34.8 µM
same,TGI,[43],14.1 µM
same,TGI,[44],35.9 µM
same,TGI,[45],23 µM
same,TGI,[46],43.7 µM
same,TGI,[47],53.9 µM
same,TGI,[48],36.8 µM
same,TGI,[49],39.3 µM
same,TGI,[50],35.7 µM
same,TGI,[51],40.8 µM
same,TGI,[52],14.9 µM
same,TGI,[53],31.3 µM
same,TGI,[54],37.1 µM
same,TGI,[55],21.6 µM
same,TGI,[56],27.4 µM
same,TGI,[57],31.5 µM
same,TGI,[58],29.8 µM
same,TGI,[59],17.4 µM
same,TGI,[60],8.92 µM
same,TGI,[61],20.8 µM
same,TGI,[62],41.8 µM
same,TGI,[63],> 70.1 µM
same,TGI,[64],29.7 µM
same,TGI,[65],46.3 µM
same,TGI,[66],12.6 µM
same,TGI,[67],45.3 µM
